Measured values: ChEMBL document CHEMBL1201862, “PubChem BioAssay data set” (2004)
Activity calls are given as the source filed them.

Key:
[1] = system: HeLa; test: HeLa cell cytotoxicity, dose response, cytotoxicity control for MITF activator project, CellTiter-Glo luminescence, cherry-pick samples (AID 540259); assay type: functional, cell-based; conditions: Homo sapiens
[2] = target: Glucose-6-phosphate 1-dehydrogenase (Homo sapiens, UniProt P11413); test: human G6PD enzyme inhibitors, dose response, selectivity assay for P. falciparum G6PD inhibitor project, biochemical, fluorescence (AID 504792); assay type: functional
Chain of Glucose-6-phosphate 1-dehydrogenase (P11413 whole entry): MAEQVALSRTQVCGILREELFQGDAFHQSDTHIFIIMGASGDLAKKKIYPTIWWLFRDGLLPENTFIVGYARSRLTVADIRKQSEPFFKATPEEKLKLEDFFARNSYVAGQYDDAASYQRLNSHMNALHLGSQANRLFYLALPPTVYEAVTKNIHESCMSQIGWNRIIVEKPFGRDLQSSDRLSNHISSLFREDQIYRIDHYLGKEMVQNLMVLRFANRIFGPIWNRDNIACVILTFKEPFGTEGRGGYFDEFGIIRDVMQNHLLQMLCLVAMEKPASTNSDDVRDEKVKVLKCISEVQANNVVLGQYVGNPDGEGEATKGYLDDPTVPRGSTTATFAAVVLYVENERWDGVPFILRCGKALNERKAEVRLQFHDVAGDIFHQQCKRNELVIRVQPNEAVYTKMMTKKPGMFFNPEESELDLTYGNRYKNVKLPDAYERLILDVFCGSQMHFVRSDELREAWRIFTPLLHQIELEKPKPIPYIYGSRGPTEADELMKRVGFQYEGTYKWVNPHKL

[3] = target: T1, Polyadenylate-binding protein 1 (Homo sapiens, UniProt P11940); test: PABP1 MLLE–PAM2 binding inhibitor potency, dose response, biochemical, fluorescence polarization, FITC-PAM2 peptide (AID 602259); assay type: functional; conditions: read-out: IC50_Mean
T1 sequence (P11940 whole entry): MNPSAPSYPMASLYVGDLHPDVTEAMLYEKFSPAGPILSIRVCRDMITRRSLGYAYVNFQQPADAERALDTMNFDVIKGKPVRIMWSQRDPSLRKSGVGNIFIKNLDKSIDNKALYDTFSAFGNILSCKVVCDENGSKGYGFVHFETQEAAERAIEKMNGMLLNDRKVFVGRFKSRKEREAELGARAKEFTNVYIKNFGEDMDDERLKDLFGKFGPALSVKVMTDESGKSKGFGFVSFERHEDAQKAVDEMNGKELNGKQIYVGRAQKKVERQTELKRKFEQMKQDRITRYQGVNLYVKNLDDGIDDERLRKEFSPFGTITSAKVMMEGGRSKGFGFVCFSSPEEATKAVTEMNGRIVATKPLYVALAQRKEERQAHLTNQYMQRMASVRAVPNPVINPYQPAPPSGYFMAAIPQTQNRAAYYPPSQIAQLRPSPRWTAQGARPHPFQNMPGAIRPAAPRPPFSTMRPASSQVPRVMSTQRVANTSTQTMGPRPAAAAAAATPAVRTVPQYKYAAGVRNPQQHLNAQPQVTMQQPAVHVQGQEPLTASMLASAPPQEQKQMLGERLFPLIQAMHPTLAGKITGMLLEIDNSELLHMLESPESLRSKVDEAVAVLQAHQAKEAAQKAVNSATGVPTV

[4] = target: T2, Protein skinhead-1 (Caenorhabditis elegans, UniProt P34707); assay type: functional
T2 sequence (P34707 whole entry): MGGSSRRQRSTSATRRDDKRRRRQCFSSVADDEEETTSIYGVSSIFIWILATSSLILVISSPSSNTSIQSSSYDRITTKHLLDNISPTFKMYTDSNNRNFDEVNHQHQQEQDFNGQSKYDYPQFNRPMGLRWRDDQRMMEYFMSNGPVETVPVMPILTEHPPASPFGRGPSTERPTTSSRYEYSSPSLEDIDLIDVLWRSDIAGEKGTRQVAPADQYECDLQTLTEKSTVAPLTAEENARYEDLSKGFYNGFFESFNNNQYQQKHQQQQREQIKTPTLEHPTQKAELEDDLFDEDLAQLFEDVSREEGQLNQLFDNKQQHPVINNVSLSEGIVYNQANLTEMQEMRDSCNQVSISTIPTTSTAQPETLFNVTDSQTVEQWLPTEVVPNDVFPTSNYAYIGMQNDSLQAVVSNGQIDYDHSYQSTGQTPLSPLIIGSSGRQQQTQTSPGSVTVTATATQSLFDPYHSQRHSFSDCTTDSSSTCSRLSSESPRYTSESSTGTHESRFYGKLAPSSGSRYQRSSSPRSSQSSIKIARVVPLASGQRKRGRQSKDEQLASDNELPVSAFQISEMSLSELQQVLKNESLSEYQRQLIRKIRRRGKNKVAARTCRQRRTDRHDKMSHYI

[5] = target: T1, Polyadenylate-binding protein 1; test: PABP1 MLLE–PAM2 interaction inhibitors, dose response, miRNA deadenylation inhibitor project, biochemical, fluorescence polarization, Cy5-PAM2 peptide, secondary (AID 602260); assay type: functional; conditions: read-out: IC50_Mean
[6] = target: T3, Rac GTPase-activating protein 1 (Homo sapiens, UniProt Q9H0H5); test: MgcRacGAP GTPase-activating activity inhibitors, confirmation, biochemical, ADP Hunter fluorescence, primary and confirmatory (AID 624330); assay type: functional
T3 sequence (Q9H0H5 whole entry): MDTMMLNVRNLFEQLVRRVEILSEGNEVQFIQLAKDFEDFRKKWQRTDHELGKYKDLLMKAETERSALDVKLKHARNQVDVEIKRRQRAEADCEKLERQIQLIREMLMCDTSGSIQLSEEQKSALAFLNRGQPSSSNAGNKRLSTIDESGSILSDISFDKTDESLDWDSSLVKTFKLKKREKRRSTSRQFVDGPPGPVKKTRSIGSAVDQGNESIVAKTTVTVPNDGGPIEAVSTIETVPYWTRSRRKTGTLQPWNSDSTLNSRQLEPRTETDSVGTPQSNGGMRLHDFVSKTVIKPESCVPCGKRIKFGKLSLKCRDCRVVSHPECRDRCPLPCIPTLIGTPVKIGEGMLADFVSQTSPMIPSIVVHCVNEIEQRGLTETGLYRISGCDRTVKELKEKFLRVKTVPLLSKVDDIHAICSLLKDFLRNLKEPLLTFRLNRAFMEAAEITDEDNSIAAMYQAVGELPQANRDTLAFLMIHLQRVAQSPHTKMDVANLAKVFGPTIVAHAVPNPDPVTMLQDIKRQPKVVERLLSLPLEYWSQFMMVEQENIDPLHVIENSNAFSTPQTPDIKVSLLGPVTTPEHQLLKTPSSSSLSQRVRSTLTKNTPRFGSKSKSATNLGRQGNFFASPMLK

[7] = target: T4, Apoptotic protease-activating factor 1 (Homo sapiens, UniProt O14727); assay type: functional
T4 sequence (O14727 whole entry): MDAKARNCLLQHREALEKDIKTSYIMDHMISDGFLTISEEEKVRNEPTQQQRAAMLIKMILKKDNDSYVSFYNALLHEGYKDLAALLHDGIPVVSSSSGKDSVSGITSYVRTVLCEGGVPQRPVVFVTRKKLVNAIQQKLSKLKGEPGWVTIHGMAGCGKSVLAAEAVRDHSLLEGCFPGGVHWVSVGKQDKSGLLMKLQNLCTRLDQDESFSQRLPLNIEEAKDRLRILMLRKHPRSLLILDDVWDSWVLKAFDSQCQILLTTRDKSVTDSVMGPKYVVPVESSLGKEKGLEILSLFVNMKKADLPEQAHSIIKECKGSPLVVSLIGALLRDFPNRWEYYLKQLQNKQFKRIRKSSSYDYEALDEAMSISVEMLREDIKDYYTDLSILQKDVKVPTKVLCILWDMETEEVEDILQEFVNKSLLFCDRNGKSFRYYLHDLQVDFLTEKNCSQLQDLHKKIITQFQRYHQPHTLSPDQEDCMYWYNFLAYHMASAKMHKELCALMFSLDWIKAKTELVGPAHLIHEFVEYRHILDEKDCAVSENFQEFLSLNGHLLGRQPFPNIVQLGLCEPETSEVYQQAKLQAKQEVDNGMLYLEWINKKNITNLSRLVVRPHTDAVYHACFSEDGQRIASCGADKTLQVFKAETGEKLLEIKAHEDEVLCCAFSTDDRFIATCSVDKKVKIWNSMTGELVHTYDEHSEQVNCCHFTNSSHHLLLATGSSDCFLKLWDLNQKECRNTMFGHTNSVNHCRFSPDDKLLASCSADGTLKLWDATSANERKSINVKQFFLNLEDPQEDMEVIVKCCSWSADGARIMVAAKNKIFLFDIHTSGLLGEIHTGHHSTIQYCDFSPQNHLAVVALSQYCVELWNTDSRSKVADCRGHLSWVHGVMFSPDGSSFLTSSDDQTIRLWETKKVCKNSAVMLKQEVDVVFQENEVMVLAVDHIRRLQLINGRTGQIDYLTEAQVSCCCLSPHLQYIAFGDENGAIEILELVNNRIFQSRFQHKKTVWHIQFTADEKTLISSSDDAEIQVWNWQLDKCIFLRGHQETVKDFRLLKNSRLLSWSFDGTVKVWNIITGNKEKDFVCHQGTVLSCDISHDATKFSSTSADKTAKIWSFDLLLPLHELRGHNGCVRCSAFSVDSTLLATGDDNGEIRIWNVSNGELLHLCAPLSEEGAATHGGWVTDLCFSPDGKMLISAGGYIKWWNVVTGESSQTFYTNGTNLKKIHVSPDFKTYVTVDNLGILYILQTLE

[8] = system: INS1; test: beta cell apoptosis inhibitors, cytokine rescue, dose response, luminescence, retest (AID 449756); assay type: functional, cell-based; conditions: Rattus norvegicus;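 further: cell death triggered by IL-1 beta plus TNF-alpha plus IFN-gamma mixture; protective hits raise ATP signal compared with cytokine alone wells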
[9] = target: Adenosylmethionine-8-amino-7-oxononanoate aminotransferase (Mycobacterium tuberculosis, UniProt P9WQ81); test: Mycobacterium tuberculosis BioA enzyme inhibitor Measured in Biochemical System Using Plate Reader - 2163-02_Inhibitor_Dose_CherryPick_Activity.; assay type: functional, Mycobacterium tuberculosis UT205
Chain of Adenosylmethionine-8-amino-7-oxononanoate aminotransferase (P9WQ81 whole entry): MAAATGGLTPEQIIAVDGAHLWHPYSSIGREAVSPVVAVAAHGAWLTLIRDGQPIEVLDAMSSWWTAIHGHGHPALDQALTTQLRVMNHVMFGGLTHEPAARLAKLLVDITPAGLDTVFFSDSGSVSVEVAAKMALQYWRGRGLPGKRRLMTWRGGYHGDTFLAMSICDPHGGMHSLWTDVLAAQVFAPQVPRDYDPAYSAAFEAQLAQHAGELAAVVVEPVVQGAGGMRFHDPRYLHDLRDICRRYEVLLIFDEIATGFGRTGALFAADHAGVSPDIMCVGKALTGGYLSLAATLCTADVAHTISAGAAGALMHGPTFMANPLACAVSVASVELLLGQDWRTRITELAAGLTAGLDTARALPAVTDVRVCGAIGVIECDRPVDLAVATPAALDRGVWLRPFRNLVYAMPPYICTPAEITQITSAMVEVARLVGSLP

[10] = target: Beta-2 adrenergic receptor (Homo sapiens, UniProt P07550); test: beta2AR agonists driving receptor internalization, dose response, cell-based, FAP fluorogen, flow cytometry, cherry pick 1 (AID 588763); assay type: functional
Chain of Beta-2 adrenergic receptor (P07550 whole entry): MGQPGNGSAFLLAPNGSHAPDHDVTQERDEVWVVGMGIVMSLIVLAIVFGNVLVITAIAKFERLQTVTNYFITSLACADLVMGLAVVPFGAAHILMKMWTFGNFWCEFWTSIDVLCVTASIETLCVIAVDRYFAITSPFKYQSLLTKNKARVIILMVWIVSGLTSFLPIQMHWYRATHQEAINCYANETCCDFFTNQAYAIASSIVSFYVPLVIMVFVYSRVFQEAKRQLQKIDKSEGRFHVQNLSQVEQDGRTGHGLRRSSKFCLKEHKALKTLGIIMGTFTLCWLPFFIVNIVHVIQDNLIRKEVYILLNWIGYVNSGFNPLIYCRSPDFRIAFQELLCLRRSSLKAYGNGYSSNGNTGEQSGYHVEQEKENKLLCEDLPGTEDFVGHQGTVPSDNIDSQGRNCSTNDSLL

[11] = system: BJ; test: cytotoxicity toward Ras-transformed BJeLR fibroblasts, dose response, cell-based, alamar blue fluorescence, cherrypicked samples (AID 2631); assay type: functional; conditions: Homo sapiens;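 further: confirmatory dose-response assay in RAS-dependent BJ fibroblasts engineered with TERT, LT and ST, with cytotoxicity read by fluorescence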
[12] = system: BJ; test: cytotoxicity toward BJ-TERT-LT-ST fibroblasts, dose response, cell-based, RAS-independent, luminescence (AID 1935); assay type: functional; conditions: Homo sapiens;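 further: BJ fibroblasts immortalized with TERT plus LT and ST oncogenes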
[13] = Luminescence Cell-Based Dose Retest to Confirm Inhibitors of Cancer Stem Cells. [Related pubchem assays (depositor defined):AID2717, AID2721]; assay type: functional; conditions: Homo sapiens
[14] = system: BJ; test: cells; assay type: functional, cell-based; conditions: Homo sapiens
[15] = cytotoxicity toward DRD oncogenic fibroblasts, dose response, cell-based, non-viral oncogenic, luminescence (AID 1934); assay type: functional; conditions: Homo sapiens
[16] = system: BJ; test: cytotoxicity toward BJ-TERT fibroblasts, dose response, cell-based, RAS-independent, luminescence (AID 1933); assay type: functional; conditions: Homo sapiens
[17] = target: T5, Testis-specific serine/threonine-protein kinase 2 (Homo sapiens, UniProt Q96PF2); assay type: functional;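 further: part of the Navigating the Kinome panel, target entry STK22B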
T5 sequence (Q96PF2 whole entry): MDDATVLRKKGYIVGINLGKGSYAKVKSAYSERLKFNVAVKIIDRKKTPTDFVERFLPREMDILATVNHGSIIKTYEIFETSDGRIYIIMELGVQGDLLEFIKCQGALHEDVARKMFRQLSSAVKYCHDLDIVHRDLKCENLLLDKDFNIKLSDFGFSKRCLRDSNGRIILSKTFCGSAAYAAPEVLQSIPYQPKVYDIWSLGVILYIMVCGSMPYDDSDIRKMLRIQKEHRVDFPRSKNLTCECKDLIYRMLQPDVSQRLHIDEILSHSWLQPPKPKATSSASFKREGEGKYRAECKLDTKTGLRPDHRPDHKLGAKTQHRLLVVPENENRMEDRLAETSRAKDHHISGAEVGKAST

[18] = target: T6, Tyrosine-protein kinase JAK3 (Homo sapiens, UniProt P52333); assay type: functional
T6 sequence (P52333 whole entry): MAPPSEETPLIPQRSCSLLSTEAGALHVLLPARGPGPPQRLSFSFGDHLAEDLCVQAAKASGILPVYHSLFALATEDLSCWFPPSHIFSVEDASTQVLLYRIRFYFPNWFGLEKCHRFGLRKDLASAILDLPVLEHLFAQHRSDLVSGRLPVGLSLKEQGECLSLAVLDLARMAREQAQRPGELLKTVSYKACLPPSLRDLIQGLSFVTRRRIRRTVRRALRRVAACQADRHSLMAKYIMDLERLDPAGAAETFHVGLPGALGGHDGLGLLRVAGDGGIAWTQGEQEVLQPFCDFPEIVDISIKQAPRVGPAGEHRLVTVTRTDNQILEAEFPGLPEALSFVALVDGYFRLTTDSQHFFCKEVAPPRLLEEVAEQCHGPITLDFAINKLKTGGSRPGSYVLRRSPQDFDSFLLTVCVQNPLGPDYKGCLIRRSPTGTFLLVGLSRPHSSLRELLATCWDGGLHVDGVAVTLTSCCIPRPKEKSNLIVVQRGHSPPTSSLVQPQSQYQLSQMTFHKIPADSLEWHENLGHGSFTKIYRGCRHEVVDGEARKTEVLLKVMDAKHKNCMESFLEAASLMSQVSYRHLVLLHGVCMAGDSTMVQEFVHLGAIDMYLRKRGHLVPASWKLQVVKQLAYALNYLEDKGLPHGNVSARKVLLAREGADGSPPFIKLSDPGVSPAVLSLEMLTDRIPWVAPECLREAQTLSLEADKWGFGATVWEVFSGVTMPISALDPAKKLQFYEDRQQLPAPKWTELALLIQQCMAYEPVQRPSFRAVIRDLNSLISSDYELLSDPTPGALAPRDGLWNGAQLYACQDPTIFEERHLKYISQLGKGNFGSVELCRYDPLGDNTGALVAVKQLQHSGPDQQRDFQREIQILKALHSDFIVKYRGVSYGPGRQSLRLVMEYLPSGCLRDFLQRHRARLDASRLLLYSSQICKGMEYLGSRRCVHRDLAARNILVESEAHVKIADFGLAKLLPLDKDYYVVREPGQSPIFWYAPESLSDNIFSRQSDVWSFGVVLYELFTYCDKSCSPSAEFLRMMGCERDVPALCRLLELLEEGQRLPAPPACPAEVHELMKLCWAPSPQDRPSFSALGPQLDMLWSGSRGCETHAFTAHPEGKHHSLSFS

## COc1ccc(/C=C/c2nc3ccccc3n2Cc2ccc(OC)c(OC)c2)cc1
[1]
  AC50: 37 µM (active)
[2]
  IC50: > 80 µM (inactive)

## c1cc(CNc2ccc3c(c2)OCO3)ccn1
[3]
  IC50: 23.5 µM (inactive)
[4]
  IC50: > 100 µM (inactive)
[5]
  IC50: > 66 µM (inactive)
[6]
  IC50: 63.8 µM (active)
[2]
  IC50: > 80 µM (inactive)

## CCCCCn1cc[n+](C2=C([N-]S(=O)(=O)c3ccc(Cl)cc3)C(=O)c3ccccc3C2=O)c1
[7]
  IC50: 30.2 µM (active)
[8]
  AC50: 3.09 µM (active)

## CCCOC(=O)c1cccc(NC(=O)c2cccnc2)c1
[9]
  AC50: 6.09 µM (active)

## Cc1cc(C)n2nc(C(=O)Nc3cccc(S(=O)(=O)N(C)c4ccccc4)c3)nc2n1
[10]
  EC50: 34.2 nM (active)

## CN[C@H]1CCc2cc(OC)c(OC)c(OC)c2-c2ccc(N(C)CC(OC)OC)c(=O)cc21
[11]
  EC50: 578 nM (inconclusive)
[12]
  EC50: 2.98 µM (inconclusive)
[13]
  AC50: 1.86 µM (active)
[14]
  EC50: 21.4 µM (active)
[15]
  EC50: 2.86 µM (active)
[16]
  EC50: 3.42 µM (active)

## CCc1ccccc1N(C)S(=O)(=O)c1ccc2ncc(C(=O)O)c(O)c2c1
[10]
  EC50: 7230 nM (active)

## Cc1ccc(O)c(NC(=O)c2cccc(NC(=O)c3ccco3)c2)c1
[10]
  EC50: 132 nM (active)

## COc1ccc(C(=O)C2CCCN(C(=O)c3ccc(C(C)=O)s3)C2)c(C)c1 (configuration not stated)
[9]
  AC50: 1.7 µM (active)

## Cc1[nH]nc2ccc(-c3cncc(OCC(N)Cc4ccccc4)c3)cc12 (configuration not stated)
[17]
  Ki: > 1.58 µM (inactive)
[18]
  Ki: > 1.58 µM (inactive)
